In patent publication US7361743B2 (Pfizer Inc, priority 2004, dated 2008):
Values after ≈ are worked out from the molar mass of the structure shown. Like-named read-outs stand apart in the source and are kept apart here.

Key:
Format in all cases: cell-based
Haemophilus influenzae = assay: Susceptibility testing, NCCLS microdilution MIC; details: for MIC: Haemophilus influenzae
Enterococcus faecalis = assay: Susceptibility testing, NCCLS microdilution MIC; details: for MIC: Enterococcus faecalis
Bacteroides fragilis = assay: Susceptibility testing, NCCLS microdilution MIC (anaerobe); details: for MIC: Bacteroides fragilis
Staphylococcus aureus = assay: Susceptibility testing, NCCLS microdilution MIC; details: ATCC25923, S. aureus ATCC 25923, Example A′, read-out: MIC S. aureus
[1] = ATCC31517, Example A′, strain ATCC 31517, 24 h at 35° C., read-out: MIC against H. influenzae strain ATCC 31517
[2] = Example A′, strain ATCC29212, 24 h at 35° C., read-out: MIC against Enterococcus faecalis strain ATCC29212
[3] = ATCC31517, H. influenzae ATCC 31517, NCCLS microdilution, read-out: MIC H. influenzae
[4] = ATCC29212, E. faecalis ATCC 29212, NCCLS microdilution, read-out: MIC E. faecalis
[5] = Example A, strain ATCC29212, 16-20 h at 35° C., read-out: MIC against Enterococcus faecalis strain ATCC29212
[6] = ATCC25285, B. fragilis ATCC 25285, NCCLS microdilution, anaerobe, read-out: MIC B. fragilis
[7] = Example A, strain ATCC25285, anaerobe, 35° C. for 46-48 h, read-out: MIC against Bacteroides fragilis strain ATCC25285
[8] = ATCC31517, H. influenzae ATCC 31517, Example A′, read-out: MIC H. influenzae
[9] = ATCC29212, E. faecalis ATCC 29212, Example A′, read-out: MIC E. faecalis
[10] = ATCC25285, B. fragilis ATCC 25285, Example A′, read-out: MIC B. fragilis
[11] = ATCC31517, Example A, strain ATCC 31517, 16-20 h at 35° C., read-out: MIC against H. influenzae strain ATCC 31517

Row | MIC (Haemophilus influenzae; [1]) [µg/mL] | MIC (Enterococcus faecalis; [2]) [µg/mL] | MIC (Haemophilus influenzae; [3]) [µg/mL] | MIC (Enterococcus faecalis; [4]) [µg/mL] | MIC (Enterococcus faecalis; [5]) [µg/mL] | MIC (Bacteroides fragilis; [6]) [µg/mL] | MIC (Bacteroides fragilis; [7]) [µg/mL] | Structure (SMILES) | also measured
1 | – | – | 2 (≈ 4.3 µM) | 0.03 (≈ 0.0645 µM) | ≤ 0.125 | 0.125 (≈ 0.269 µM) | ≤ 0.5 | CS[C@H]1OC([C@H](NC(=O)[C@@H]2C[C@H](CCC3CCC3)CCN2)[C@H](C)Cl)[C@H](O)[C@H](O)[C@H]1O (stereo in doubt) [Example 81, 4-(2-Cyclobutyl-ethyl)-piperidine-2-carboxylic acid [2-chloro-1-(3,4,5-trihydroxy-6-methylsulfanyl-tetrahydro-pyran-2-yl)-propyl]-amide] | –
2 | – | – | 2 (≈ 4.43 µM) | 0.125 (≈ 0.277 µM) | ≤ 0.125 | 0.25 (≈ 0.554 µM) | ≤ 0.5 | CS[C@H]1OC([C@H](NC(=O)[C@@H]2C[C@H](CC3CCC3)CCN2)[C@H](C)Cl)[C@H](O)[C@H](O)[C@H]1O (stereo in doubt) [Example 82, 4-Cyclobutylmethyl-piperidine-2-carboxylic acid [2-chloro-1-(3,4,5-trihydroxy-6-methylsulfanyl-tetrahydro-pyran-2-yl)-propyl]-amide] | –
3 | – | – | 0.5 (≈ 1.14 µM) | 0.125 (≈ 0.285 µM) | ≤ 0.125 | 0.125 (≈ 0.285 µM) | ≤ 0.5 | CCCC1CCN[C@H](C(=O)N[C@@H]([C@H]2O[C@H](SC)[C@H](O)[C@@H](O)[C@H]2O)[C@H](C)Cl)CC1 (stereo partly shown) [Example 47, 5-Propyl-azepane-2-carboxylic acid [2-chloro-1-(3,4,5-trihydroxy-6-methylsulfanyl-tetrahydro-pyran-2-yl)-propyl]-amide] | MIC (Haemophilus influenzae; [11]): 0.5 µg/mL (≈ 1.14 µM); MIC (Haemophilus influenzae; Example A, strain not stated, 16-20 h at 35° C., read-out: MIC against Haemophilus influenzae): ≥ 4 µg/mL
4 | – | – | 0.5 (≈ 1.1 µM) | 0.03 (≈ 0.0662 µM) | ≤ 0.125 | 0.125 (≈ 0.276 µM) | ≤ 0.5 | CCCCC1CCN[C@H](C(=O)N[C@@H]([C@H]2O[C@H](SC)[C@H](O)[C@@H](O)[C@H]2O)[C@H](C)Cl)CC1 (stereo partly shown) [Example 144, 5-Butyl-azepane-2-carboxylic acid [2-chloro-1-(3,4,5-trihydroxy-6-methylsulfanyl-tetrahydro-pyran-2-yl)-propyl]-amide] | MIC (Haemophilus influenzae; [11]): 0.5 µg/mL (≈ 1.1 µM)
5 | – | – | 0.5 (≈ 1.07 µM) | 0.125 (≈ 0.268 µM) | ≤ 0.125 | 0.5 (≈ 1.07 µM) | ≤ 0.5 | CCCCCC1CCN[C@H](C(=O)N[C@@H]([C@H]2O[C@H](SC)[C@H](O)[C@@H](O)[C@H]2O)[C@H](C)Cl)CC1 (stereo partly shown) [Example 145, 5-Pentyl-azepane-2-carboxylic acid [2-chloro-1-(3,4,5-trihydroxy-6-methylsulfanyl-tetrahydro-pyran-2-yl)-propyl]-amide] | MIC (Haemophilus influenzae; [11]): 0.5 µg/mL (≈ 1.07 µM)

Continued, molecule first:

Row | Structure (SMILES) | MIC (Haemophilus influenzae; [1]) [µg/mL] | MIC (Enterococcus faecalis; [2]) [µg/mL] | MIC (Haemophilus influenzae; [3]) [µg/mL] | MIC (Enterococcus faecalis; [4]) [µg/mL] | MIC (Enterococcus faecalis; [5]) [µg/mL] | MIC (Bacteroides fragilis; [6]) [µg/mL] | MIC (Bacteroides fragilis; [7]) [µg/mL] | also measured
6 | CS[C@H]1O[C@H]([C@H](NC(=O)[C@@H]2C[C@@H](C/C=C/c3ccncc3)CN2)C(C)C)[C@H](O)[C@H](O)[C@H]1O (stereo in doubt) [Example 2, 4-(3-Pyridin-4-yl-allyl)-pyrrolidine-2-carboxylic acid [2-methyl-1-(3,4,5-trihydroxy-6-methylsulfanyl-tetrahydro-pyran-2-yl)-propyl]-amide] | ≥ 0.5 | – | – | – | – | – | – | –
7 | CS[C@H]1O[C@H]([C@H](NC(=O)[C@@H]2C[C@@H](CCCc3ccncc3)CN2)C(C)C)[C@H](O)[C@H](O)[C@H]1O (stereo in doubt) [Example 3, 4-(3-Pyridin-4-yl-propyl)-pyrrolidine-2-carboxylic acid [2-methyl-1-(3,4,5-trihydroxy-6-methylsulfanyl-tetrahydro-pyran-2-yl)-propyl]-amide] | ≥ 0.5 | ≤ 0.125 | – | – | – | – | – | –
8 | CCCCS[C@@H]1CN[C@H](C(=O)N[C@@H]([C@H]2O[C@H](SC)[C@H](O)[C@@H](O)[C@H]2O)[C@@H](C)O)C1 (stereo in doubt) [Example 4, 4-Butylsulfanyl-pyrrolidine-2-carboxylic acid [2-hydroxy-1-(3,4,5-trihydroxy-6-methylsulfanyl-tetrahydro-pyran-2-yl)-propyl]-amide] | ≥ 0.5 | ≤ 0.125 | – | – | – | – | – | –
9 | CCS[C@@H]1CN[C@H](C(=O)N[C@@H]([C@H]2O[C@H](SC)[C@H](O)[C@@H](O)[C@H]2O)[C@H](C)Cl)C1 (stereo in doubt) [Example 8, 4-Ethylsulfanyl-pyrrolidine-2-carboxylic acid [2-chloro-1-(3,4,5-trihydroxy-6-methylsulfanyl-tetrahydro-pyran-2-yl)-propyl]-amide] | ≥ 0.5 | ≤ 0.125 | – | – | – | – | – | –
10 | CS[C@H]1O[C@H]([C@H](NC(=O)[C@@H]2C[C@H](Sc3ccc(F)cc3)CN2)[C@@H](C)O)[C@H](O)[C@H](O)[C@H]1O (stereo in doubt) [Example 10, 4-(4-Fluoro-phenylsulfanyl)-pyrrolidine-2-carboxylic acid [2-hydroxy-1-(3,4,5-trihydroxy-6-methylsulfanyl-tetrahydro-pyran-2-yl)-propyl]-amide] | ≥ 0.5 | ≤ 0.125 | – | – | – | – | – | –
11 | CS[C@H]1O[C@H]([C@H](NC(=O)[C@@H]2C[C@H](SCCC(C)C)CN2)[C@@H](C)O)[C@H](O)[C@H](O)[C@H]1O (stereo in doubt) [Example 12, 4-(3-Methyl-butylsulfanyl)-pyrrolidine-2-carboxylic acid [2-hydroxy-1-(3,4,5-trihydroxy-6-methylsulfanyl-tetrahydro-pyran-2-yl)-propyl]-amide] | ≥ 0.5 | – | – | – | – | – | – | –
12 | CS[C@H]1O[C@H]([C@H](NC(=O)[C@@H]2C[C@@H](CC=C(F)F)CN2)C(C)C)[C@H](O)[C@H](O)[C@H]1O [Example 1, 4-(3,3-difluoroprop-2-ene)-pyrrolidine-2-carboxylic acid [2-methyl-1-(3,4,5-trihydroxy-6-methylsulfanyl-tetrahydro-pyran-2-yl)-propyl]-amide] | ≥ 0.5 | – | – | – | – | – | – | –
13 | CCS[C@@H]1CN[C@H](C(=O)N[C@@H]([C@H]2O[C@H](SC)[C@H](O)[C@@H](O)[C@H]2O)[C@@H](C)O)C1 [Example 5, 4-Ethylsulfanyl-pyrrolidine-2-carboxylic acid [2-hydroxy-1-(3,4,5-trihydroxy-6-methylsulfanyl-tetrahydro-pyran-2-yl)-propyl]-amide] | ≥ 0.5 | ≤ 0.125 | – | – | – | – | – | –
14 | CS[C@H]1O[C@H]([C@H](NC(=O)[C@@H]2C[C@H](SCCC(F)(F)F)CN2)[C@@H](C)O)[C@H](O)[C@H](O)[C@H]1O [Example 11, 4-(3,3,3-Trifluoro-propylsulfanyl)-pyrrolidine-2-carboxylic acid [2-hydroxy-1-(3,4,5-trihydroxy-6-methylsulfanyl-tetrahydro-pyran-2-yl)-propyl]-amide] | ≥ 0.5 | ≤ 0.125 | – | – | – | – | – | –
15 | CCOCCC[C@@H]1CCN[C@H](C(=O)N[C@@H]([C@H]2O[C@H](SC)[C@H](O)[C@@H](O)[C@H]2O)[C@H](C)Cl)CC1 [Example 19′, 5-(3-Ethoxy-propyl)-azepane-2-carboxylic acid [2-chloro-1-(3,4,5-trihydroxy-6-methylsulfanyl-tetrahydro-pyran-2-yl)-propyl]-amide] | – | – | – | – | – | – | – | MIC (Haemophilus influenzae; [8]): 4 µg/mL (≈ 8.28 µM); MIC (Enterococcus faecalis; [9]): 2 µg/mL (≈ 4.14 µM); MIC (Bacteroides fragilis; [10]): 8 µg/mL (≈ 16.6 µM); MIC (Staphylococcus aureus): 0.125 µg/mL (≈ 0.259 µM)
16 | CS[C@H]1O[C@H]([C@H](NC(=O)[C@@H]2CC[C@H](CCCOCCF)CCN2)[C@H](C)Cl)[C@H](O)[C@H](O)[C@H]1O [Example 20′, 5-[3-(2-Fluoro-ethoxy)-propyl]-azepane-2-carboxylic acid [2-chloro-1-(3,4,5-trihydroxy-6-methylsulfanyl-tetrahydro-pyran-2-yl)-propyl]-amide] | – | – | – | – | – | – | – | MIC (Haemophilus influenzae; [8]): 2 µg/mL (≈ 3.99 µM); MIC (Enterococcus faecalis; [9]): 2 µg/mL (≈ 3.99 µM); MIC (Bacteroides fragilis; [10]): 8 µg/mL (≈ 16 µM); MIC (Staphylococcus aureus): 0.125 µg/mL (≈ 0.249 µM)
17 | CCC[C@@H]1C[C@@H](C(=O)N[C@@H]([C@H]2O[C@H](SC)[C@H](O)[C@@H](O)[C@H]2O)[C@H](C)Cl)N(C)C1 [clindamycin, reference compound] | 8 (≈ 18.8 µM) | > 8 | 8 (≈ 18.8 µM) | > 8 | > 8 | 2 (≈ 4.71 µM) | 2 (≈ 4.71 µM) | MIC H. influenzae (Haemophilus influenzae; H. influenzae ATCC 31517, Example A′): 8 µg/mL (≈ 18.8 µM); MIC (Haemophilus influenzae; [11]): 8 µg/mL (≈ 18.8 µM); MIC E. faecalis (Enterococcus faecalis; E. faecalis ATCC 29212, Example A′): >8 µg/mL; MIC B. fragilis (Bacteroides fragilis; B. fragilis ATCC 25285, Example A′): 2 µg/mL (≈ 4.71 µM); MIC (Staphylococcus aureus): 0.125 µg/mL (≈ 0.294 µM)
